For 1 molecule, Km results are on record in publication PMC11770272, “Surface immobilization of single atoms on heteroatom-doped carbon nanospheres through phenolic-mediated interfacial anchoring for highly efficient biocatalysis” (Chemical Science, 2025).

This assay has as its system T1, natural horseradish peroxidase (HRP).
T1 construct: gene PRXC1A
As to the kind of experiment: steady-state kinetics, absorbance of oxidized TMB at […] nm. Type of assay: biochemical, Armoracia rusticana. The conditions noted are these: H2O2 as co-substrate, HAc-NaAc buffer pH 3.6, 37 °C.

For orientation: Km means the substrate concentration at which the rate is half of its maximum. Turning to `Cc1cc(-c2cc(C)c(N)c(C)c2)cc(C)c1N` [TMB], the Km was 1650 µM.
